{"source": "patent US7141589B2", "about": "“Methods of inhibiting formation of vascular channels and methods of inhibiting proliferation” (The United States of America as represented by the …, priority 2001, dated 2006)", "key": {"[1]": {"tested_on": "HUVEC", "experiment": "Cell cycle analysis of HUVEC by flow cytometry", "format": "cell-based, human", "conditions": "for concentration that gave close to the maximum accumulation (>70%) of HUVEC in G1: 24 h of treatment", "procedure": "(§1) Exponentially growing HUVEC were treated with the test compounds for 24 or 48 h, and processed for cell cycle analysis. After harvesting cells by trypsin treatment, isolation and staining of cell nuclei were performed using a CycleTEST™ PLUS DNA Reagent Kit (Becton & Dickinson, Rutherford, N.J.), according to the procedure recommended by the manufacturer. Briefly, nuclei were released from cells by treatment with a nonionic detergent and trypsin. The nuclear chromatin was stabilized with spermine. Propidium iodide was used to stain the DNA. Fluorescence histograms were generated with a FACSCalibur cytometer (Becton & Dickinson, Rutherford, N.J.), using CELLQuest software."}, "[2]": {"tested_on": "HUVEC", "experiment": "Tube formation on Matrigel by HUVEC", "format": "cell-based, human", "conditions": "18 h; for concentration at which disruption of tube formation was manifest: HUVEC on Matrigel", "procedure": "The formation of tubes on Matrigel by HUVEC was assessed as described (Kubota et al., J. Cell. Biol. 107(4): 1589–1598 (1988) and Ponce, In Vitro Matrigel Angiogenesis Assays. Totowa, N.J.: Humana Press Inc., 2000) with minor modifications as follows. Matrigel, 0.3 ml, was added to each well of a 24-well plate. After the Matrigel had gelled, HUVEC (5×10^4 cells), trypsinized from an exponentially growing culture, were added to each well in 0.2 ml of supplemented EBM-2. Test compounds were added in duplicate for each concentration and incubated at 37° C., 5% CO2, for 18 h. The medium was aspirated the next day, and the cells were fixed and stained with Diff-Quick Fix and staining solution II (Baxter Scientific Products, McGaw, Ill.)."}, "[3]": {"tested_on": "HUVEC", "experiment": "Inhibition of DNA synthesis in HUVEC ([3H]thymidine incorporation)", "format": "cell-based", "conditions": "Homo sapiens, read-out: IC50 for inhibition of DNA synthesis", "procedure": "The test compounds were added at the indicated concentrations to exponentially growing HUVEC in 24-well plates (1×10^5 cells/well). […] DNA was precipitated with 5% trichloroacetic acid, washed once with 5% trichloroacetic acid, and dissolved in 0.2 ml of 0.2 N NaOH for measurement of radioactivity."}, "[4]": {"tested_on": "chick aortic arch rings", "experiment": "Chick aortic arch ring sprouting on Matrigel", "procedure": "The assay was carried out as described previously for rat aortic rings (Gho et al., 1999), supra) with a slight modification. Briefly, the aortic arches were dissected from 14-day-old chick embryos, cleaned free of unwanted tissue, and cut into 0.8 mm slices. Each ring was transferred into the center of a well of a 24-well plate to which 1.5 μl of Matrigel had just been added. Ten μl of ice-cold Matrigel were added immediately to embed the ring. When the Matrigel was solidified, 500 μl of supplemented EBM-2 were added to each well. After addition of the test compounds in sextuplicate for each concentration, the plates were incubated at 37° C. with 5% CO2, and the degree of sprouting was assessed by a blinded observer after 48 and 72 h."}, "[5]": {"biological_target": "T1, deoxyhypusine hydroxylase (Homo sapiens, UniProt Q9BU89)", "T1 construct": "endogenous in cells; host or cells: HUVEC", "T1 sequence (Q9BU89 1-302)": "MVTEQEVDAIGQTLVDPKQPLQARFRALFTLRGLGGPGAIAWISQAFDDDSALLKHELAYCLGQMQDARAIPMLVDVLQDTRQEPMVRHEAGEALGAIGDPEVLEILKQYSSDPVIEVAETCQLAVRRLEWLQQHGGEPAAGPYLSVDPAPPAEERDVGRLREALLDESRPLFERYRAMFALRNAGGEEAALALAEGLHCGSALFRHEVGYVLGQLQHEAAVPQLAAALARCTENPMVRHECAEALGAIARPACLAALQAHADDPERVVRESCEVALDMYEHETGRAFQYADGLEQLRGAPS", "experiment": "Inhibition of deoxyhypusine hydroxylation in HUVEC ([3H]spermidine labeling)", "format": "cell-based", "conditions": "for IC50: [3H]spermidine, 18-20 h", "procedure": "(§2) Exponentially growing HUVEC (5×10^5 cells per 60-mm dish) were incubated with 5 μCi/ml of [1,8-^3H]spermidine for 18 h in the presence or absence of the indicated concentrations of inhibitors. The cells were washed with PBS and harvested by centrifugation at 300×g for 5 minutes. Cellular proteins were precipitated with 10% trichloroacetic acid containing 1 mM each of unlabeled spermidine, spermine and putrescine, and the precipitates were washed three times to remove radiolabeled free polyamines. The washed precipitates were hydrolyzed in 6 N HCl for 18 h at 115° C. Radiolabeled hypusine and deoxyhypusine released by acid hydrolysis were separated by ion exchange chromatography using an automated Dionex D-400 amino acid analyzer (Park et al., (1982), supra). The radioactivity in the hypusine and the deoxyhypusine fractions was measured using a Beckman liquid scintillation spectrometer."}, "[6]": {"tested_on": "Siha cells", "experiment": "Cell cycle arrest in Siha cells by flow cytometry", "format": "cell-based, human", "conditions": "30 μm", "procedure": "as §1\n(§3) Siha cells were incubated for 20 hours with increasing concentrations of ciclopirox and then metabolically labeled to determine the ability to inhibit DNA synthesis, as described in Example 4, and the ability to inhibit deoxyhypusine hydroxylation, as described in Example 2. Cell cycle arrest was assessed by flow cytometry, as described in Example 5."}, "[7]": {"tested_on": "prolyl 4-hydroxylase", "experiment": "Inhibition of collagen proline 4-hydroxylation in HUVEC ([3H]proline labeling)", "format": "cell-based, human", "procedure": "For the determination of collagen proline 4-hydroxylation, exponentially growing HUVEC were plated in 60-mm dishes. After cell attachment, ascorbic acid (50 μg/ml), β-aminopropionitrile (30 μg/ml), and the test compounds were added along with [^3H]proline (20 μCi/ml). After an 18-h incubation, labeled proteins (including collagen) released into the medium were precipitated with 10% trichloroacetic acid. After washing three times with 5% trichloroacetic acid solution, the precipitated proteins were hydrolyzed in 6N HCl at 115° C. for 24 h. Unlabeled hydroxyproline was added to each sample. Radioactive proline and hydroxyproline were separated by thin layer chromatography on silica gel-coated glass plates in 75% phenol (phenol:water, 75:25 w/w) containing 0.2 mg/ml NaCN (Brenner et al., Dünnschict-Chromatographie von Aminosäuren. Experientia 16: 378–383 (1960). The positions of proline and hydroxyproline were visualized by the ninhydrin reaction. Hydroxyproline separated from proline with Rf values of 0.45 and 0.58, respectively. The silica gel in the hydroxyproline and proline areas was scraped off, eluted with 0.5 ml of water, and the radioactivity in each spot was counted. The degree of proline hydroxylation was estimated from the ratio of [^3H]hydroxyproline to the total radioactivity in [^3H]proline plus [^3H]hydroxyproline."}, "[8]": {"tested_on": "Siha cells", "experiment": "Inhibition of DNA synthesis in Siha cells", "format": "cell-based, human", "conditions": "log-phase Siha cells, 20 hours", "procedure": "The test compounds were added at the indicated concentrations to exponentially growing HUVEC in 24-well plates (1×10^5 cells/well). At 10 h, [^3H]thymidine (1 μCi/well) was added. After an additional 2-h incubation, the cells were washed twice with PBS. DNA was precipitated with 5% trichloroacetic acid, washed once with 5% trichloroacetic acid, and dissolved in 0.2 ml of 0.2 N NaOH for measurement of radioactivity.\nas §3"}, "[9]": {"biological_target": "T1, deoxyhypusine hydroxylase", "experiment": "Inhibition of deoxyhypusine hydroxylation in Siha cells", "format": "cell-based", "conditions": "30 μM, 20 hours", "procedure": "as §2, §3"}}, "note": "Where “and” joins values, the source holds several entries; their conditions need not be identical. Equal values may be shown once. Read-outs that look alike come from different tables or passages of the source.", "data": [{"smiles": "Cc1c(O)c(=O)ccn1C", "note": "[deferiprone, 1,2-dimethyl-3-hydroxypyrid-4-one]", "values": [{"measurement": "concentration that gave close to the maximum accumulation (>70%) of HUVEC in G1", "setting": "[1]", "result": 200, "unit": "µM"}, {"measurement": "inhibition of tube formation", "setting": "[2]; 200 μM", "result": "Modest inhibition"}, {"measurement": "IC50", "setting": "[3]; 18 h, 18 h of treatment", "result": 130, "unit": "µM"}, {"measurement": "concentration showing a strong inhibition of sprouting", "setting": "[4]; 72 h of incubation", "result": 400, "unit": "µM"}, {"measurement": "IC50", "setting": "[5]", "result": 117, "unit": "µM"}]}, {"smiles": "Cc1cc(C2CCCCC2)n(O)c(=O)c1", "note": "[ciclopirox]", "values": [{"measurement": "concentration that gave close to the maximum accumulation (>70%) of HUVEC in G1", "setting": "[1]", "result": 30, "unit": "µM"}, {"measurement": "concentration giving cell cycle arrest similar to that at 24 h with 30 μM", "setting": "[1]; 48 h treatment", "result": 10, "unit": "µM"}, {"measurement": "cell cycle effect", "setting": "[6]", "result": "arrest in late G1"}, {"measurement": "concentration at which disruption of tube formation was manifest", "setting": "[2]", "result": "10 to 20", "unit": "µM"}, {"measurement": "inhibition of proline hydroxylation", "setting": "[7]; 10 μM", "result": 63, "unit": "%"}, {"measurement": "inhibition of DNA synthesis", "setting": "[8]", "result": "sharp, dose-dependent inhibition"}, {"measurement": "IC50", "setting": "[3]; 18 h, 18 h of treatment", "result": "~10", "unit": "µM"}, {"measurement": "relative inhibition of sprouting", "setting": "[4]; 72 h", "result": "the most inhibitory"}, {"measurement": "concentration above which no [3H]hypusine was detectable (complete inhibition of deoxyhypusine hydroxylase)", "setting": "[5]; 20 h", "result": "> 10", "unit": "µM"}, {"measurement": "concentration at which only [3H]hypusine but no [3H]deoxyhypusine was detected (no inhibition)", "setting": "[5]; 20 h", "result": "≤ 2.5", "unit": "µM"}, {"measurement": "IC50", "setting": "[5]", "result": "~5 µM and 5 µM"}, {"measurement": "suppression of deoxyhypusine hydroxylation", "setting": "[9]", "result": "totally suppressed"}]}, {"smiles": "CC(=O)N(O)CCCCCNC(=O)CCC(=O)N(O)CCCCCNC(=O)CCC(=O)N(O)CCCCCN", "note": "[deferoxamine]", "values": [{"measurement": "concentration that gave close to the maximum accumulation (>70%) of HUVEC in G1", "setting": "[1]", "result": 50, "unit": "µM"}, {"measurement": "inhibition of proline hydroxylation", "setting": "[7]; 100 μM", "result": 40, "unit": "%"}, {"measurement": "IC50", "setting": "[3]; 18 h of treatment", "result": 16, "unit": "µM"}, {"measurement": "IC50", "setting": "[5]", "result": "16 µM and ~16 µM"}]}, {"smiles": "c1ccc(-c2ccccn2)nc1", "note": "[2,2′-dipyridyl]", "values": [{"measurement": "concentration that gave close to the maximum accumulation (>70%) of HUVEC in G1", "setting": "[1]", "result": 100, "unit": "µM"}, {"measurement": "concentration at which disruption of tube formation was manifest", "setting": "[2]", "result": 100, "unit": "µM"}, {"measurement": "IC50", "setting": "[3]; 18 h of treatment", "result": 55, "unit": "µM"}, {"measurement": "IC50", "setting": "[5]", "result": 26, "unit": "µM"}]}, {"smiles": "NC(Cn1ccc(=O)c(O)c1)C(=O)O", "note": "(stereo not shown) [mimosine]", "values": [{"measurement": "increase in G1", "setting": "[1]; 400 μM, 24 h incubation", "result": "did not cause a significant increase in G1"}, {"measurement": "impairment of tube formation", "setting": "[2]; 400 μM", "result": "little sign of impairment"}, {"measurement": "inhibition of proline hydroxylation", "setting": "[7]; 400 μM", "result": "only minor inhibition"}, {"measurement": "IC50", "setting": "[3]; 18 h", "result": 455, "unit": "µM"}, {"measurement": "inhibition of sprout growth", "setting": "[4]; 400 μM, 72 h", "result": "moderate inhibition"}, {"measurement": "IC50", "setting": "[5]", "result": 191, "unit": "µM"}]}]}
